Consider 1 compound from patent US9493460B2, “Diimide compounds” (UCL BUSINESS PLC, priority 2013, dated 2016).

Data set [1] in a line: Tolerability and body weight in xenograft study. In kind it is in vivo. Here is the method:
In a first experiment, mice were allocated into groups (six mice per group) as follows: control group (IV 100 uL/10g sterile PBS) and single dose of 20 mg/kg of 3d (IV 100 uL/10 g body weight in sterile PBS).
In a subsequent experiment using CD1 nu/nu female mice as described above, mice were allocated into groups (six mice per group) as follows: control group (IV 100 uL/10 g sterile PBS) and 3d at 15 mg/kg given once weekly. […] In the control group the median time to endpoint was 42 days compared to 79 days in the treated group.

In data set [2] the test system is A549 (lung) cells. The data set can be described thus: SRB growth inhibition assay, 96 hr exposure, A549. It is filed as cell-based, human. The note with it: Homo sapiens, A549, 96 h exposure. The method, boiled down:
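SRB growth inhibition was measured after 96 h exposure to 2-fold serial dilutions of compound, with cells maintained at 37 °C in 5% CO2 and medium containing 10% FBS. Absorbance at 540 nm was expressed as a percentage of untreated control wells. IC50 was derived from these values.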

As to `CN1CCN(CCCNc2cc3c4c(c(NCCCN5CCN(C)CC5)cc5c4c2C(=O)N(CCCN2CCOCC2)C5=O)C(=O)N(CCCN2CCOCC2)C3=O)CC1` [Compound 3d, 4,9-bis((3-(4-methylpiperazin-1-yl)propyl)amino)-2,7-bis(3-morpholinopropyl)benzo[lmn][3,8]phenanthroline-1,3,6,8(2H,7H)-tetraone], the tolerability of therapy entry in data set [1] (15 mg/kg once weekly) was “well tolerated”. The bodyweight loss result in data set [1] (single dose 20 mg/kg or 15 mg/kg once weekly) is recorded as “without any significant bodyweight loss”. The same compound yielded an IC50 in data set [2] of 0.01 to 0.02 µM.

By IC50 is commonly meant the concentration needed to halve the response being measured. Higher therefore signals lower potency.
